Laboratory results from US20040023806A1 (priority 1999, published 2004).

What was measured:
Cercospora arachidicola = assay: Residual protective activity against Cercospora arachidicola in peanuts; assay type: in vivo; settings: peanut plants sprayed with 0.02% active substance, infected 48 hours later, evaluated 12 days after infection (number and size of leaf spots)
Protocol: Peanut plants 10 to 15 cm high are sprayed to runoff with an aqueous spray liquor (0.02% active substance) prepared from a wettable powder of the active substance and 48 hours later are infected with a conidia suspension of the fungus. The plants are incubated at 21° C. and high atmospheric humidity for 72 hours and then placed in a greenhouse until the typical leaf spots appear. The activity of the active substance is evaluated 12 days after infection, on the basis of the number and size of leaf spots.

Aphis craccivora = assay: Activity against Aphis craccivora; assay type: in vivo; settings: pea seedlings, spray liquor 100 ppm active substance, 20° C., 3 and 6 days later
Protocol: Pea seedlings are infected with Aphis craccivora and sprayed with a spray liquor containing 100 ppm active substance and incubated at 20° C. 3 and 6 days later, the percentage reduction in the population (% activity) is determined by comparing the number of dead aphids on the treated and untreated plants.

Phytophthora infestans = assay type: in vivo; settings: tomato plants sprayed with 0.02% active substance, infected 24 hours later, assessed 5 days after infection
Venturia inaequalis = assay: Residual protective activity against Venturia inaequalis in apples; assay type: in vivo; settings: apple seedlings sprayed with 0.02% active substance, infected 24 hours later, assessed 12 days after infection
Protocol: Apple seedlings with fresh shoots 10 to 20 cm long are sprayed to runoff with an aqueous spray liquor (0.02% active substance) prepared from a wettable powder of the active substance and 24 hours later are infected with a conidia suspension of the fungus. The plants are incubated at from 90 to 100 percent relative atmospheric humidity for 5 days and placed in a greenhouse at from 20 to 24° C. for […]. Fungal infestation is assessed 12 days after infection.

For `CO/N=C(C)/C(C)=N/OCc1ccccc1NC(=O)OC` [Compound 1 from table b, Methyl [2-(2-(E)-methoxyimino-1-methyl-(E)-propylideneaminooxymethyl)phenyl]carbamate], the melting point was 96.5 to 97.5 °C.

With `CCN(C(=O)OC)c1ccccc1CO/N=C(C)/C(C)=N/OC` [Compound 7 from table b, Methyl N-ethyl-[2-(2-(E)-methoxyimino-1-methyl-(E)-propylideneaminooxymethyl)phenyl]carbamate] the activity (Cercospora arachidicola) was “more than 80%” and the melting point was 101 to 102 °C.

With `CCON=C(C(C)=NN=Cc1ccccc1N(COC)C(=O)OC)c1ccc(Oc2ccc(C(F)(F)F)cc2)cc1` [Compound 5 from table a, methyl N-methoxymethyl-[2-({2-ethoxyimino-1-methyl-2-[4-(4-trifluoromethylphenoxy)phenyl]ethylidene}hydrazonomethyl)phenyl]carbamate] the “kill rate (% activity, reduction in population)” value (Aphis craccivora) was “more than 80%”.

`CO/N=C(/C(C)=N/OCc1ccccc1NC(=O)OC)c1ccc(F)cc1` gave a melting point of 143 to 144 °C.

In the case of `CCO/N=C(/C(C)=N/N=C/c1ccccc1N(C)C(=O)OC)c1ccc(Oc2ccc(C(F)(F)F)cc2)cc1` [Compound 1 from table a, Methyl N-methyl-[2-({2-ethoxyimino-1-methyl-2-[4-(4-trifluoromethylphenoxy)phenyl]ethylidene}hydrazonomethyl)phenyl]carbamate], the activity (Phytophthora infestans) is reported as “more than 80%” and the activity (Venturia inaequalis) is reported as “more than 80%”.
